Reference: article PMC5407064 (Cell reports, 2017)
Substitutions are numbered along the chain they refer to.

What was measured:
SIRT1 K444E = target: T1, SIRT1 K444E (Homo sapiens, UniProt Q96EB6, K444E); test: steady-state kinetics; format: biochemical
T1 sequence (Q96EB6 2-747 K444E): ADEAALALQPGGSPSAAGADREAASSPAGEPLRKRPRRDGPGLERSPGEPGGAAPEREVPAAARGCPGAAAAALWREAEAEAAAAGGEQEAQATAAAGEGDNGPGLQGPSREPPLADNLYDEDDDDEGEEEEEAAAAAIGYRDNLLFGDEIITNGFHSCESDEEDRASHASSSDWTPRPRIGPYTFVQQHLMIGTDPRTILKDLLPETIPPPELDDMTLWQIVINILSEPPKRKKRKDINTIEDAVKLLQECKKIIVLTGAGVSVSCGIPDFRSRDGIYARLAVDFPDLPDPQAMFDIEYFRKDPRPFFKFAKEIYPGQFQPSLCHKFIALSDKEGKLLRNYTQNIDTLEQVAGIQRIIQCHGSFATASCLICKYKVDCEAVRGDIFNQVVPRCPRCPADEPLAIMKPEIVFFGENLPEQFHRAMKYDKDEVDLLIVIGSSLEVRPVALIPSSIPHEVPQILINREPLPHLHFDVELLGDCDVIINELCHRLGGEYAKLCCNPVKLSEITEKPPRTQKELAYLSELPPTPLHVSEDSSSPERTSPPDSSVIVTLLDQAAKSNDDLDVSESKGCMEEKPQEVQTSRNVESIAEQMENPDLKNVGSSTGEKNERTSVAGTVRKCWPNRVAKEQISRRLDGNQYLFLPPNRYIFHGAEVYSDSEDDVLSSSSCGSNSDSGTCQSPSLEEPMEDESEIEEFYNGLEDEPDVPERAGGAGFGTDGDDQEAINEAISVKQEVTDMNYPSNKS

SIRT1 = target: T2, SIRT1 (Homo sapiens, UniProt Q96EB6); test: SIRT1 activation assay; format: biochemical
T2 sequence (Q96EB6 2-747): T1 sequence (Q96EB6 2-747 K444E) with E443K

SMILES	steady-state kinetics (KM, kcat), FDL SIRT1 assay with varied NAD+ (SIRT1 K444E)	SIRT1 activation assay (Fig. S4C); activation peak concentration (SIRT1) [mM]
NC(=O)c1ccc[n+]([C@@H]2O[C@H](COP(=O)([O-])OP(=O)(O)OC[C@H]3O[C@@H](n4cnc5c(N)ncnc54)[C@H](O)[C@@H]3O)[C@@H](O)[C@H]2O)c1 [NAD^+]	K444E SIRT1 is catalytically more active than WT (higher kcat) and has a significantly lower KM for both substrates	–
Oc1ccc(/C=C/c2cc(O)cc(O)c2)cc1 [resveratrol]	–	1
